The text below walks through data of ChEMBL document CHEMBL1255217, “Bioisosteric replacement leading to biologically active [2.2]paracyclophanes with altered binding profiles for aminergic G-protein-coupled receptors” (J Med Chem, 2010).

The structures appear in SMILES notation. The source made the active and inactive calls. No cut-off for these calls is given here.

Experiment [1] is described as follows: Displacement of [3H]Prazosin from adrenergic alpha1 receptor in pig cerebral cortex homogenates. The class given is tissue-based, Sus scrofa. In general terms: Loss of bound radioactivity is the signal in a displacement assay; it reports binding, not function.
For experiment [2], the target named is 5-hydroxytryptamine receptor 2A (Sus scrofa, UniProt P50129). Kind of experiment: Displacement of [3H]Ketanserin from 5-HT2 receptor in pig cortex membranes. The class given is cell membranes.
In experiment [3] the target is T1, D(2) dopamine receptor (Homo sapiens, UniProt P14416). Description: Displacement of [3H]Spiperone from human dopamine D2 long receptor expressed in CHO cells. The class given is cell-based.
A further experiment has as its target T2, D(4) dopamine receptor (Homo sapiens, UniProt P21917).
T2 sequence (P21917 whole entry): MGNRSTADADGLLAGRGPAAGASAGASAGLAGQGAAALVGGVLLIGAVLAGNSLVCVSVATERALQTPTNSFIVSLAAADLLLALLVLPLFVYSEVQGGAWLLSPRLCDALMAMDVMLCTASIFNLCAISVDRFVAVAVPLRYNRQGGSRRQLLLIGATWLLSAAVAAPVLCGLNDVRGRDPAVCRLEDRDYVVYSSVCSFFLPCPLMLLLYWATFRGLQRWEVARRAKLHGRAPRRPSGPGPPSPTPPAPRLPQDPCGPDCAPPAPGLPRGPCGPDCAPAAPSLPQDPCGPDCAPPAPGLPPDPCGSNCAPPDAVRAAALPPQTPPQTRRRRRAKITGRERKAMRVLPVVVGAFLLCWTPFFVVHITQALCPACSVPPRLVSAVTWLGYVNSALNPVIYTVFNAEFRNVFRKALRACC
Kind of experiment: Displacement of [3H]Spiperone from human dopamine D4.4 receptor expressed in CHO cells. Format: cell-based.

Experiment [4] addresses T1, D(2) dopamine receptor. Kind of experiment: Displacement of [3H]Spiperone from human dopamine D2 short receptor expressed in CHO cells. The class given is cell-based.
In experiment [5] the target is T3, D(3) dopamine receptor (Homo sapiens, UniProt P35462). Kind of experiment: Displacement of [3H]Spiperone from human dopamine D3 receptor expressed in CHO cells. Format: cell-based.
The target of the next experiment is D(1A) dopamine receptor (Sus scrofa, UniProt P50130). Kind of experiment: Displacement of [3H]SCH23390 from dopamine D1 receptor in pig striatal membranes. The class given is cell membranes, Striatum, Membrane.
Experiment [6] has as its target T3, D(3) dopamine receptor. Description: Agonist activity at human dopamine D3 receptor expressed in dhfr deficient CHO cells assessed as [3H]thymidine incorporation. The class given is functional, cell-based.
For experiment [7], the species on record is Homo sapiens. Description: Selectivity ratio of Ki for wild type human dopamine D3 receptor to Ki for human dopamine D3 receptor V2.61F mutant.
For experiment [8], the species on record is Homo sapiens. Kind of experiment: Selectivity ratio of Ki for wild type human dopamine D3 receptor to Ki for human dopamine D3 receptor F6.52W mutant.

T1 sequence (P14416 whole entry): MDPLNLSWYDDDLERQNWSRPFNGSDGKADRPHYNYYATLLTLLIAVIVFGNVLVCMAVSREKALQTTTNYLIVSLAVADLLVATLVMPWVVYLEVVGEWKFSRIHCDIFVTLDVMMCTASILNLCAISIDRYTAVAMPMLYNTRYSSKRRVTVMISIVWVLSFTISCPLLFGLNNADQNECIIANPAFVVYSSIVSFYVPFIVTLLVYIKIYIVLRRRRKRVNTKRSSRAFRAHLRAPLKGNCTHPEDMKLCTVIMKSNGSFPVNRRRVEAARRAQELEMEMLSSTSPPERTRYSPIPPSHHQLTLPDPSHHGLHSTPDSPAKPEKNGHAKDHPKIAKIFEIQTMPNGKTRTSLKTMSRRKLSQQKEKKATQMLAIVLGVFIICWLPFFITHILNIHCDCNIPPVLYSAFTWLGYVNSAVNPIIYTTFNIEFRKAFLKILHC
D(1A) dopamine receptor, sequence (P50130 whole entry): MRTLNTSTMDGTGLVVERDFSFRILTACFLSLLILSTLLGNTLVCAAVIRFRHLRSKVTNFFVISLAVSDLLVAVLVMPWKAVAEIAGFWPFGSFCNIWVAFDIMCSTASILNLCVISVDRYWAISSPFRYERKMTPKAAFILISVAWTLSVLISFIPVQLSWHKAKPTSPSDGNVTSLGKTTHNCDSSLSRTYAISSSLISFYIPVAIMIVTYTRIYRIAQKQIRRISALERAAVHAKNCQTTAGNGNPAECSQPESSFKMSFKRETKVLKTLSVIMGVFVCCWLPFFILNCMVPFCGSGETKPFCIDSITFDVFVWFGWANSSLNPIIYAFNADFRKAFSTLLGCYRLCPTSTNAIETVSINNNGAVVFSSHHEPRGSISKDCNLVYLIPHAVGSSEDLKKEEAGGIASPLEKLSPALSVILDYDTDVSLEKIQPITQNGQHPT
5-hydroxytryptamine receptor 2A, sequence (P50129 whole entry): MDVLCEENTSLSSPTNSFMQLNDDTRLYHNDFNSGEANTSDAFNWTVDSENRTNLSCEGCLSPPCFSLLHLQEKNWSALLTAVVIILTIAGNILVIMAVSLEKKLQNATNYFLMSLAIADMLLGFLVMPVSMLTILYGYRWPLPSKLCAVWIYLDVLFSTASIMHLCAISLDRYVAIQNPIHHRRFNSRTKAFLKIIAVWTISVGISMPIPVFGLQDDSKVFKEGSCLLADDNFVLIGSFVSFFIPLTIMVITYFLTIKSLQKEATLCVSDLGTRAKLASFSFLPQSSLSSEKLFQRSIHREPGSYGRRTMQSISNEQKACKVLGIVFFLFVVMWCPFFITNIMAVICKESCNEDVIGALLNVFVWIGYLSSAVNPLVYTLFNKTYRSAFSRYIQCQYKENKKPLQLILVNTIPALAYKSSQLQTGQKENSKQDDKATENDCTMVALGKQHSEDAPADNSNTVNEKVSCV
T3 sequence (P35462 whole entry): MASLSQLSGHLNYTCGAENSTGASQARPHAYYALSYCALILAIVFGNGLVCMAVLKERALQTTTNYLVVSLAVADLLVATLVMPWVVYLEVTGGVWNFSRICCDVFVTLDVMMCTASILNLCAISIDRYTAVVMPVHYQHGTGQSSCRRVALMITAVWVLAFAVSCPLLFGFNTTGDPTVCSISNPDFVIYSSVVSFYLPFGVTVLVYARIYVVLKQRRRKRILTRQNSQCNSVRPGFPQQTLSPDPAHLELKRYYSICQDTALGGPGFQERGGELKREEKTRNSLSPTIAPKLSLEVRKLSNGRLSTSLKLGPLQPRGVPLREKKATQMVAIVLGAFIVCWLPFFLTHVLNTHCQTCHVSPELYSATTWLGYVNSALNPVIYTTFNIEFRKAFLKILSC

One may read the Ki as the equilibrium dissociation constant of an inhibitor or competing ligand from its target. High values mean a looser hold on the target, low ones a stronger hold on the target. `Cc1ccc(C)c(C(=O)CCCN2CCC(O)(c3ccc(Cl)cc3)CC2)c1`: the Ki in experiment [1] came out at 35 nM; in [2], 690 nM; on D(2) dopamine receptor [3], 15 nM; at D(4) dopamine receptor, 61 nM; at D(2) dopamine receptor [4] it was 43 nM; at D(3) dopamine receptor [5] it was 73 nM. Also, at D(1A) dopamine receptor, affinity was put at a Ki of 3800 nM.

Regarding `O=C(CCCN1CCC(O)(c2ccc(Cl)cc2)CC1)c1cc2ccc1CCc1ccc(cc1)CC2`, the inhibitory constant (Ki) in experiment [2] is 2400 nM; on D(4) dopamine receptor, 39 nM; on D(3) dopamine receptor [5], 17 nM; at D(1A) dopamine receptor, 9800 nM.

In the case of `Cc1ccc(C)c(N2CCN(CCCC(=O)c3ccc(F)cc3)CC2)c1`, the Ki in experiment [1] worked out at 3.2 nM; in [2] it was 850 nM; on D(2) dopamine receptor [3], 13 nM; at D(4) dopamine receptor, 17 nM; at D(2) dopamine receptor [4], 16 nM; on D(3) dopamine receptor [5], 76 nM. This compound also registered a Ki at D(1A) dopamine receptor of 210 nM.

On to `COc1ccccc1N1CCN(CCCCNC(=O)c2cc(C)ccc2C)CC1`, for which the Ki came to 14 nM in [1]; 1500 nM in [2]; 22 nM at D(2) dopamine receptor [3]; 23 nM at D(4) dopamine receptor; 17 nM at D(2) dopamine receptor [4]; 4.7 nM on D(3) dopamine receptor [5]. The inhibition constant (Ki) at D(1A) dopamine receptor turned out to be 2100 nM.

Turning to `O=C(CCCN1CCC(O)(c2ccc(Cl)cc2)CC1)c1ccc(F)cc1` [HALOPERIDOL], affinity in [1] was put at a Ki of 6.8 nM.

As for `O=C(CCCN1CCC(O)(c2cc3ccc2CCc2ccc(cc2)CC3)CC1)c1cc2ccc1CCc1ccc(cc1)CC2`, the Ki in experiment [1] amounted to 2800 nM; in experiment [2], 1200 nM; at D(4) dopamine receptor, 30 nM; at D(3) dopamine receptor [5] it was 38 nM; on D(1A) dopamine receptor it was 4900 nM.

As for `O=C(NCCCCN1CCN(c2cc3ccc2CCc2ccc(cc2)CC3)CC1)c1cc2ccccc2s1`, the Ki in experiment [1] amounted to 490 nM; in experiment [2] it was 1000 nM; on D(2) dopamine receptor [3] it was 83 nM; on D(4) dopamine receptor, 880 nM; on D(2) dopamine receptor [4], 150 nM; at D(3) dopamine receptor [5], 1.6 nM. The affinity at D(1A) dopamine receptor, expressed as Ki, was 4000 nM. For the same compound, the result at D(3) dopamine receptor [6] was inactive. Besides, the Ratio Ki in the experiment filed under Homo sapiens [7] stood at 24; in the experiment filed under Homo sapiens [8], 2.4.

As for `COc1ccccc1N1CCN(CCCCNC(=O)c2cc3ccc2CCc2ccc(cc2)CC3)CC1`, the Ki in experiment [1] amounted to 4.2 nM; in experiment [2], 2200 nM; at D(2) dopamine receptor [3], 24 nM; on D(4) dopamine receptor, 11 nM; on D(2) dopamine receptor [4] it was 18 nM; at D(3) dopamine receptor [5], 0.49 nM. Moreover, on D(1A) dopamine receptor, the Ki was 680 nM.

On to `Cc1ccc(C)c(N2CCN(CCCCNC(=O)c3cc4ccccc4s3)CC2)c1`, for which the Ki in experiment [1] was 20 nM; in experiment [2], 1500 nM; on D(2) dopamine receptor [3], 84 nM; on D(4) dopamine receptor, 300 nM; at D(2) dopamine receptor [4] it was 65 nM; at D(3) dopamine receptor [5], 2.5 nM. On D(1A) dopamine receptor, this compound came in with a Ki of 2400 nM. For the same compound, the figures for the Ratio Ki in the experiment filed under Homo sapiens [7] and in the experiment filed under Homo sapiens [8] were 40 and 38, respectively.

As for `O=C(CCCN1CCC(O)(c2cc3ccc2CCc2ccc(cc2)CC3)CC1)c1ccc(F)cc1`, the Ki in [1] was determined as 2.9 nM; in [2], 19 nM; at D(2) dopamine receptor [3], 4.8 nM; at D(4) dopamine receptor, 0.72 nM; at D(2) dopamine receptor [4], 3.6 nM; at D(3) dopamine receptor [5], 53 nM. The affinity on D(1A) dopamine receptor, expressed as Ki, was 100 nM.

In the case of `O=C(CCCN1CCN(c2ccc(Cl)cc2)CC1)c1cc2ccc1CCc1ccc(cc1)CC2`, the Ki in [1] worked out at 180 nM; in experiment [2], 1700 nM; at D(2) dopamine receptor [3], 620 nM; on D(4) dopamine receptor, 120 nM; at D(2) dopamine receptor [4], 440 nM; at D(3) dopamine receptor [5], 410 nM. In addition, affinity on D(1A) dopamine receptor was put at a Ki of 5400 nM.

Turning to `O=C(NCCCCN1CCN(c2cc3ccc2CCc2ccc(cc2)CC3)CC1)c1cc2ccc1CCc1ccc(cc1)CC2`, the Ki stood at 840 nM in experiment [1]; 8200 nM in [2]; 32 nM at D(2) dopamine receptor [3]; 170 nM at D(4) dopamine receptor; 48 nM at D(2) dopamine receptor [4]; 4 nM on D(3) dopamine receptor [5]. The same compound returned a Ki on D(1A) dopamine receptor of 7800 nM.

For the compound `Cc1ccc(C)c(C2(O)CCN(CCCC(=O)c3ccc(F)cc3)CC2)c1`, the inhibitory constant (Ki) in experiment [1] stood at 1.3 nM; in experiment [2], 110 nM; on D(2) dopamine receptor [3], 3.4 nM; at D(4) dopamine receptor, 20 nM; on D(2) dopamine receptor [4], 6.5 nM; at D(3) dopamine receptor [5] it was 27 nM. The compound further came in with a Ki on D(1A) dopamine receptor of 19 nM.

`Cc1ccc(C)c(C(=O)NCCCCN2CCN(c3cc(C)ccc3C)CC2)c1`: the Ki in [1] worked out at 29 nM; in experiment [2] it was 3600 nM; at D(2) dopamine receptor [3], 99 nM; at D(4) dopamine receptor, 220 nM; at D(2) dopamine receptor [4], 86 nM; on D(3) dopamine receptor [5] it was 28 nM. The same compound displayed a Ki on D(1A) dopamine receptor of 3200 nM.

As for `COc1ccccc1N1CCN(CCCCNC(=O)c2cc3ccccc3s2)CC1`, the results for the Ki in [1] and in [2] were 14 nM and 350 nM, respectively.

For `O=C(CCCN1CCN(c2cc3ccc2CCc2ccc(cc2)CC3)CC1)c1ccc(F)cc1`, the Ki was determined as 71 nM in [1]; 450 nM in [2]; 19 nM on D(2) dopamine receptor [3]; 120 nM on D(4) dopamine receptor; 22 nM at D(2) dopamine receptor [4]; 9.9 nM on D(3) dopamine receptor [5]. This compound also registered a Ki on D(1A) dopamine receptor of 590 nM.

As to `Cc1ccc(C)c(C(=O)CCCN2CCC(O)(c3cc(C)ccc3C)CC2)c1`, the Ki in experiment [1] came out at 11 nM; in [2], 1700 nM; at D(4) dopamine receptor, 30 nM; on D(3) dopamine receptor [5], 280 nM; on D(1A) dopamine receptor, 590 nM.

Consider `O=C(CCCN1CCN(c2ccc(Cl)cc2)CC1)c1ccc(F)cc1`, for which the Ki in experiment [1] came out at 13 nM; in [2], 440 nM; at D(2) dopamine receptor [3], 63 nM; at D(4) dopamine receptor it was 7.6 nM; at D(2) dopamine receptor [4], 61 nM; on D(1A) dopamine receptor, 340 nM.
